Usually MIC stands for the lowest concentration found to suppress growth.

The record followed here is patent publication US8987304B2, “Antituberculous composition comprising oxazole compounds” (priority 2005, dated 2015).

One data set relates to CYP1A1/2. Kind of data set: ethoxyresorufin deethylation activity in human hepatic microsome. The method, then: (§1) 4-2. Effect of the Oxazole Compound (I) on the Enzymatic Activity of Each Molecular Species of Cytochrome P450 (CYP)
(§2) Basic reaction composition (0.5 ml) was consisting of microsome protein 0.2-1 mg/ml, 100 mM phosphate buffer (pH 7.4), 0.1 mM EDTA, NADPH generation system (2.5 mM β-NADP, 25 mM glucose-6-phosphate, 2 units glucose-6-phosphate dehydrogenase and 10 mM magnesium chloride), with or without each substrate and inhibitor, and the reaction was performed at 37° C. for 10-60 minutes. Each substrate and its concentration used were 7-ethoxyresorufln (0.5 μM), coumarin (2 μM), 7-benzyloxyresorufin (1.5 μM), tolbutamide (400 μM), S-mephenyloin (100 μM), bufuralol (20 μM), chlorzoxazone (100 μM), testosterone (100 μM) and nifedipine (50 μM).
(§3) Generated products after the metabolic response were measured by using high performance liquid chromatography after extraction.

The target in another data set is CYP2C19 (Homo sapiens, UniProt P33261). Kind of data set: S-mephenytoin hydroxylation activity in human hepatic microsome. The following applies: liver microsomes, pH 7.4, probe S-mephenytoin (100 μM). The method, then:
as §1, §2, §3
(In general: Liver microsomes are a subcellular fraction often used to study metabolism.)

The next data set deals with CYP2D6 (Homo sapiens, UniProt P10635). Kind of data set: bufuralol hydroxylation activity in human hepatic microsome. The following applies: liver microsomes, pH 7.4, probe bufuralol (20 μM). The procedure: as §1, §2, §3
A further data set has as its system CYP2C8/9. Kind of data set: tolbutamide hydroxylation activity in human hepatic microsome. The procedure: as §1, §2, §3
The test system of data set [1] is hepatic microsomal enzyme. Nature of the data set: In vitro metabolism, rat hepatic microsome. Type of data set: in vitro ADME. The settings on record: 100 μM, microsome protein 1 mg/ml, 37° C., 2 hours. The method, then: (§4) 4-1. In Vitro Metabolism of Oxazole Compound (I)
(§5) Studies on in vitro metabolism of oxazole compound (I) (compound (A-R)) were performed using hepatic microsomal enzyme of human and various animals (mouse, rat, dog, rabbit and monkey). Human microsome was obtained from Attached Primate Research Institute, HAB Discussion Group (Chiba, Japan). […] The reaction was terminated by adding organic solvent (acetonitrile or ethyl acetate) and generated metabolites were extracted. The extracted metabolites were detected by using high performance liquid chromatography and liquid chromatograph electrospray ionization tandem mass spectrometry to confirm amount of generation.

The test system of data set [2] is hepatic microsomal enzyme. Kind of data set: In vitro metabolism, monkey hepatic microsome. Format: in vitro ADME. The settings on record: 100 μM, microsome protein 1 mg/ml, 37° C., 2 hours. The procedure:
as §4, §5

The next data set concerns the target T1, CYP2B6 (Homo sapiens, UniProt P20813).
T1 sequence (P20813 1-491): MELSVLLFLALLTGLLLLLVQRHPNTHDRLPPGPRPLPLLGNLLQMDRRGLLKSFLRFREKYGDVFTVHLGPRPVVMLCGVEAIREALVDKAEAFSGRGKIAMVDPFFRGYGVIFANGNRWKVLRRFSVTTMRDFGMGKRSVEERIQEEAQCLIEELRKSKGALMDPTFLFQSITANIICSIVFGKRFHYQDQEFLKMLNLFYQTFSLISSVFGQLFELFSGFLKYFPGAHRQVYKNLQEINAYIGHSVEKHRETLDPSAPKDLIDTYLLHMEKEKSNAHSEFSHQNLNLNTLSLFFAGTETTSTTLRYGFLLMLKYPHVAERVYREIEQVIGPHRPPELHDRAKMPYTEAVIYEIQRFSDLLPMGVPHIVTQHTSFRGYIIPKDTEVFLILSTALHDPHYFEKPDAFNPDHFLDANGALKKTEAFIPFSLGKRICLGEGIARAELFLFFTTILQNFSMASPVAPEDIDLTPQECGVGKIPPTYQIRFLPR
Kind of data set: 7-benzyloxyresorufin debenzylation activity in human hepatic microsome. The settings on record: microsomes, pH 7.4. The method, then:
as §1, §2, §3

For data set [3], the system named is Experimental mouse tuberculosis model. Nature of the data set: In vivo experiments for intermittent administration, experimental mouse tuberculosis model. The following applies: three times a week, twice a week or once a week; alone or in combination with conventional antituberculous drugs. The source says:
In Vivo Experiments for Intermittent Administration

Data set [4] concerns hepatic microsomal enzyme. Kind of data set: In vitro metabolism, mouse hepatic microsome. Format: in vitro ADME. The settings on record: 100 μM, microsome protein 1 mg/ml, 37° C., 2 hours. The method, then: as §4, §5
For a further data set, the target named is T2, CYP2A6 (Homo sapiens, UniProt P11509).
T2 sequence (P11509 1-494): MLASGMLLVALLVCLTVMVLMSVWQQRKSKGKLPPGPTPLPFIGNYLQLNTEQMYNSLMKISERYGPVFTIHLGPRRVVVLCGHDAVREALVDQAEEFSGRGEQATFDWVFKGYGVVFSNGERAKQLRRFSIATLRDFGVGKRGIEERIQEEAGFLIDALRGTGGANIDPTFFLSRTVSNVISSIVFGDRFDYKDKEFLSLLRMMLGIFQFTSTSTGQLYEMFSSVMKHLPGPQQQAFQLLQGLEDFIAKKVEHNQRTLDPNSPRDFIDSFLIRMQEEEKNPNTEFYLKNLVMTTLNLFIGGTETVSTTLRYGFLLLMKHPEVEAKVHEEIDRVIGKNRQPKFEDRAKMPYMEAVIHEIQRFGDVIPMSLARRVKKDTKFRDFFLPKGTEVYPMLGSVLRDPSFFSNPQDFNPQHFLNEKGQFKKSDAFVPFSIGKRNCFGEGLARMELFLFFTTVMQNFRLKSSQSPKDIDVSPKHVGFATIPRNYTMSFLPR
Nature of the data set: coumarin hydroxylation activity in human hepatic microsome. The method, then:
as §1, §2, §3

The test system of data set [5] is hepatic microsomal enzyme. Kind of data set: In vitro metabolism, human hepatic microsome. Type of data set: in vitro ADME. The settings on record: 100 μM, microsome protein 1 mg/ml, 37° C., 2 hours. The procedure:
as §4, §5

Data set [6] deals with intracellular parasitic tubercle bacillus (M. tuberculosis H37Rv) in THP-1 cells. Kind of data set: Effect on intracellular parasitic tubercle bacillus in THP-1 cells. Type of data set: cell-based.
For data set [7], the system named is hepatic microsomal enzyme. Kind of data set: In vitro metabolism, rabbit hepatic microsome. Format: in vitro ADME. The settings on record: 100 μM, microsome protein 1 mg/ml, 37° C., 2 hours. The method, then: as §4, §5
Data set [8] deals with each CYP enzyme (CYP1A/2, CYP2A6, CYP2B6, CYP2C8/9, CYP2C19, CYP2D6, CYP2E1 and CYP3A4). Kind of data set: Summary: effect on each CYP enzyme activity in human hepatic microsome. The settings on record: up to 100 μM. The procedure:
as §1, §2, §3

The subject of data set [9] is clinical isolates of tubercle bacillus, TBT-9 and TBT-14. Kind of data set: In vitro combined effect: MIC on 7H11 agar plates and FIC index. Format: cell-based. The settings on record: 37° C., 2 weeks; for MIC: Bacillus, 336 h, each agent alone. The method, then:
In Vitro Experiment on the Combined Effect of an Oxazole Compound (I) and Another Agent
A suspension of tubercle bacillus was prepared at about 10^6 CFU/ml (for clinical isolates of tubercle bacillus, TBT-9 and TBT-14). About 10 μl aliquots thereof were inoculated on respective plates by using a multipoint inoculator.

For data set [10], the system named is hepatic microsomal enzyme. Nature of the data set: In vitro metabolism, dog hepatic microsome. Format: in vitro ADME. The settings on record: 100 μM, microsome protein 1 mg/ml, 37° C., 2 hours. The method, then: as §4, §5
Another data set has as its target CYP2E1 (Homo sapiens, UniProt P05181). Kind of data set: chlorozoxazone hydroxylation activity in human hepatic microsome. The settings on record: 100 μM; CYP2E1, chlorozoxazone (100 μM). The procedure:
as §1, §2, §3

Setting [11] is: human, liver microsomes, pH 7.4, probe coumarin (2 μM), coumarin hydroxylation.
[12] abbreviates: combination Compound (A-R) & EB.
The mark [13] stands for this setting: combination Compound (A-R) & RFP.
Where [14] appears, read: liver microsomes, pH 7.4, probe tolbutamide (400 μM), hydroxylation.

CYP2D6, sequence (P10635 whole entry): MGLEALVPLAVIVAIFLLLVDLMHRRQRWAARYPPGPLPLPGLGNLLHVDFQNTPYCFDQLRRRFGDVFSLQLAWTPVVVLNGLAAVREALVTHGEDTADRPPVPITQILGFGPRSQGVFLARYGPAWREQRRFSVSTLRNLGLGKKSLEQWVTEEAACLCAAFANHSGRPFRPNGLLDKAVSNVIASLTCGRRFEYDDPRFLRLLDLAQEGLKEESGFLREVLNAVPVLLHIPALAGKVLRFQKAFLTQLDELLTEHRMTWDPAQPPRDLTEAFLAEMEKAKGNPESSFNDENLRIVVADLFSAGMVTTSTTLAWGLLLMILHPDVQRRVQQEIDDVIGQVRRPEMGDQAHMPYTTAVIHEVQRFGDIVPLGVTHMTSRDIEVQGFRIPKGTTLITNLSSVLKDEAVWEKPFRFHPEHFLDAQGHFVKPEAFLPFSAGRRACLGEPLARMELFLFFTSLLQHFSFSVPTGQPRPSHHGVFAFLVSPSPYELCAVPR
CYP2C19, sequence (P33261 whole entry): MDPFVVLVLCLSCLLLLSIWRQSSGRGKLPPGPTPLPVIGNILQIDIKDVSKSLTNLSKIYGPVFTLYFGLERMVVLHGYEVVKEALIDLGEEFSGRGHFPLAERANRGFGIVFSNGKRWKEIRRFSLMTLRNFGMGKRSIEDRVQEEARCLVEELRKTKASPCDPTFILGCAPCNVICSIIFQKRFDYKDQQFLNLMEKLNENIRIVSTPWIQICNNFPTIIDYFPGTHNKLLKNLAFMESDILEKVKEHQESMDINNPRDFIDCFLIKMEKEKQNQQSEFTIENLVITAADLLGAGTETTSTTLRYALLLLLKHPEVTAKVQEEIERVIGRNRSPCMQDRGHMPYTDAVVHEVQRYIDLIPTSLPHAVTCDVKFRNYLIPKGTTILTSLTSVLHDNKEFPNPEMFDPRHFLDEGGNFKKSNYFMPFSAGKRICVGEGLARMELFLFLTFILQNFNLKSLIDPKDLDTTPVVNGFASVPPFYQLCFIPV
CYP2E1, sequence (P05181 whole entry): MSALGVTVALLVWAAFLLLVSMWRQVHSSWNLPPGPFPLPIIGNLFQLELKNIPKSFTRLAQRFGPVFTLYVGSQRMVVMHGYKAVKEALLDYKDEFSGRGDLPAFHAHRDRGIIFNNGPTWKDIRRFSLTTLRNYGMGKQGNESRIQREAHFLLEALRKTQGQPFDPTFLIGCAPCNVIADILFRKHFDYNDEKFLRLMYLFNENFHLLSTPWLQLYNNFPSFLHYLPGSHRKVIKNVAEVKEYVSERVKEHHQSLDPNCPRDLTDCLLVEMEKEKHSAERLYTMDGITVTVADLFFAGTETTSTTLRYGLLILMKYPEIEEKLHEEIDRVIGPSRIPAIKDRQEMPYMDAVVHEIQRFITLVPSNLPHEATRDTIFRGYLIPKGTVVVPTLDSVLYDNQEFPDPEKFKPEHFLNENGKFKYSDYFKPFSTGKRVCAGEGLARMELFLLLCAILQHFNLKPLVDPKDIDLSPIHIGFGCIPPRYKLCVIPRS

Regarding `O=c1cc(-c2ccccc2)oc2c1ccc1ccccc12` [7,8-benzoflavone, reference compound], in the data set with CYP1A1/2 (100 μM, CYP1A1/2, 7-ethoxyresorufin (0.5 μM)), the “Relative activity (%) for control activity” value was 3.8%.
In the case of `C[C@]1(COc2ccc(N3CCC(Oc4ccc(OC(F)(F)F)cc4)CC3)cc2)Cn2cc([N+](=O)[O-])nc2O1` [Compound (A-R), (R)-2-methyl-6-nitro-2-{4-[4-(4-trifluoromethoxyphenoxy)piperidin-1-yl]phenoxymethyl}-2,3-dihydroimidazo[2,1-b]oxazole], the activity at 3 μM is 109% on CYP2C19; 102% at CYP2D6; 111% in the data set on CYP2C8/9 (microsomes, pH 7.4); 109% on CYP2B6; 102% on CYP2A6 (setting [11]). The activity at 10 μM on CYP2C19 turned out to be 113%; in the data set on CYP2C8/9 (microsomes, pH 7.4), 107%; on CYP2B6, 118%; at CYP2A6 (setting [11]) it was 103%; in the data set on CYP1A1/2 (human, microsomes, pH 7.4) it was 98.4%. For the same compound, the activity at 1 μM at CYP2D6 is 102%; in the data set on CYP2C8/9 (microsomes, pH 7.4) it was 107%; at CYP2B6 it was 111%; at CYP2A6 (setting [11]) it was 103%; in the data set with CYP1A1/2 (human, microsomes, pH 7.4), 99.8%. In addition, the activity at 30 μM was determined as 103% at CYP2D6; 108% with CYP2C8/9 (microsomes, pH 7.4); 113% on CYP2B6; 102% in the data set with CYP1A1/2 (human, microsomes, pH 7.4). Also, the activity at 100 μM in the data set with CYP2C8/9 (microsomes, pH 7.4) is 108%; at CYP2B6, 122%; with CYP1A1/2 (human, microsomes, pH 7.4) it was 98.6%. Also, the generated metabolites entry in data set [1], in [2], in [4], in data set [5], in data set [7] and in [10] was “almost no generated metabolites” in each case. The “therapeutic effect of intermittent administration compared with once a day administration” value in data set [3] is “equivalent effect”. In addition, the “effect in short term action” value in data set [6] (action for 2 hours) is “strong effect”. In [6] (compound (A-R) 0.1 μg/ml compared with RFP 3 μg/ml), the “effect against intracellular parasitic tubercle bacillus at the lowest test dose” value is on record as “equivalent effect of the maximum concentration 3 μg/ml of RFP”. In addition, the “Log reduction of bacterial counts compared with time 0 hour (FIG. 2), comparison among antituberculous drugs” value in data set [6] (test substance for 2 or 4 hours, bacteria collected at 72 hours) is given as “stronger effect”. Further, in data set [8], the “inhibitory action and stimulation action against each CYP enzyme activity” value is “did not exhibit inhibitory action and stimulation action”. The minimum inhibitory concentration (MIC) in data set [9] (line Compound (A-R) & EB) worked out at 0.012 µg/mL; in data set [9] (line Compound (A-R) & RFP), 0.024 µg/mL. Besides, the MIC in combination in [9] (setting [12]) came to 0.003 µg/mL; in data set [9] (setting [13]) it was 0.006 µg/mL.
On to `CC[C@@H](CO)NCCN[C@@H](CC)CO` [EB, ethambutol, reference compound], for which, in data set [9] (line Compound (A-R) & EB), the MIC worked out at 1.56 µg/mL. Besides, in data set [9] (setting [12]), the MIC in combination came to 0.2 µg/mL.
Regarding `CO[C@H]1/C=C/O[C@@]2(C)Oc3c(C)c(O)c4c(O)c(c(/C=N/N5CCN(C)CC5)c(O)c4c3C2=O)NC(=O)/C(C)=C\C=C\[C@H](C)[C@H](O)[C@@H](C)[C@@H](O)[C@@H](C)[C@H](OC(C)=O)[C@@H]1C` [RFP, rifampicin, reference compound], the MIC in combination in data set [9] (setting [13]) came out at 0.05 µg/mL.
Take `CCN(CC)C(=S)S` [diethyldithiocarbamine, reference compound]: the “Relative activity (%) for control activity” value came to 38.2% on CYP2A6 (100 μM, CYP2A6, coumarin (2 μM)) and 55.0% at CYP2E1.
Turning to `Cc1nc2c([nH]1)c(=O)n(C)c(=O)n2Cc1ccco1` [furafylline, reference compound], the activity at 100 μM in the data set on CYP1A1/2 (human, microsomes, pH 7.4) turned out to be 32.3%.
For `O=c1c(O)c(-c2ccc(O)c(O)c2)oc2cc(O)cc(O)c12` [quercetin, reference compound], the activity at 100 μM in the data set with CYP2C8/9 (setting [14]) came to 30.6%.
Same read-out and setting: the figure for `Nc1ccc(S(=O)(=O)Nc2ccnn2-c2ccccc2)cc1` [sulfaphenazole, reference compound] is 25.5%.
